From ChEMBL document CHEMBL3046674, “A new fatty alcohol from Terminalia arjuna leaves with antileishmanial activity” (Med Chem Res, 2013)
Converted amounts (≈) assume the structure as drawn.

Each compound was assayed on Leishmania donovani (assay: Antileishmanial activity against promastigote form of Leishmania donovani after 48 hrs by Alamar Blue assay).
Format: functional, organism-based
Compound `N=C(N)c1ccc(OCCCCCOc2ccc(C(=N)N)cc2)cc1` [PENTAMIDINE] has an IC90 of 2.03 µg/mL (≈ 5.96 µM). With `C[C@@H]1[C@H](O)[C@@H](C)/C=C/C=C/C=C/C=C/C=C/C=C/C=C/[C@H](O[C@@H]2O[C@H](C)[C@@H](O)[C@H](N)[C@@H]2O)C[C@@H]2O[C@](O)(C[C@@H](O)C[C@@H](O)[C@H](O)CC[C@@H](O)C[C@@H](O)CC(=O)O[C@H]1C)C[C@H](O)[C@H]2C(=O)O` [AMPHOTERICIN B] the IC50 was 0.47 µg/mL (≈ 0.509 µM) and the IC90 was 0.65 µg/mL (≈ 0.703 µM). For `CC(=O)OC/C=C(\C)CC(C)CC(C)CCCCCCCCC(C)C` (configuration not stated), the IC50 was 2 µg/mL (≈ 5.67 µM) and the IC90 was 6 µg/mL (≈ 17 µM). For `C/C(=C\CO)CC(C)CC(C)CCCCCCCCC(C)C` (configuration not stated), the IC50 was 9 µg/mL (≈ 29 µM) and the IC90 was 30 µg/mL (≈ 96.6 µM).
